This passage reports Activity results from ChEMBL document CHEMBL1240397, “Amodiaquine dosage and tolerability for intermittent preventive treatment to prevent malaria in children” (Antimicrob Agents Chemother, 2010).

What all share (format): organism-based
Holding throughout (conditions): in vivo, po

The subject of data set [1] is Homo sapiens. The experiment in a line: Toxicity in children with malaria under 2 years of age assessed as incidence of fever administered with 250 mg sulfalene/12.5 mg pyrimethamine on first day followed by compound treatment at <=15 mg/kg/day, perorally.
Data set [2] deals with Homo sapiens. Description: Toxicity in children with malaria over 2 years of age assessed as incidence of fever at >=15 mg/kg/day, perorally co-treated with 500 mg sulfalene/25 mg pyrimethamine.
Data set [3] deals with Homo sapiens. The experiment in a line: Toxicity in children with malaria assessed as incidence of rashes at <15 mg/kg/day, perorally and co-treated with sulfadoxine and pyrimethamine during intermittent preventive treatment to prevent malaria in children regimen.
The subject of data set [4] is Homo sapiens. Description: Toxicity in children with malaria over 2 years of age assessed as incidence of itching at >=15 mg/kg/day, perorally co-treated with 500 mg sulfalene/25 mg pyrimethamine.
In data set [5] the test system is Homo sapiens. The experiment in a line: Toxicity in children with malaria assessed as incidence of vomiting at 15-17 mg/kg/day, perorally and cotreated with Sulfadoxine and pyrimethamine during intermittent preventive treatment to prevent malaria in children regimen.
Data set [6] concerns Homo sapiens. Description: Toxicity in children with malaria under 2 years of age assessed as incidence of itching administered with 250 mg sulfalene/12.5 mg pyrimethamine on first day followed by compound treatment at <=15 mg/kg/day, perorally.
In data set [7] the test system is Homo sapiens. The experiment in a line: Toxicity in children with malaria over 2 years of age assessed as incidence of vomiting at >=15 mg/kg/day, perorally co-treated with 500 mg sulfalene/25 mg pyrimethamine.
Data set [8] has as its system Homo sapiens. Description: Toxicity in children with malaria assessed as febrile incidence at <15 mg/kg/day, perorally and co-treated with sulfadoxine and pyrimethamine during intermittent preventive treatment to prevent malaria in children regimen.
The subject of data set [9] is Homo sapiens. The experiment in a line: Toxicity in children with malaria assessed as febrile incidence at 15-17 mg/kg/day, perorally and co-treated with sulfadoxine and pyrimethamine during intermittent preventive treatment to prevent malaria in children regimen.
Data set [10] has as its system Homo sapiens. Description: Toxicity in children with malaria assessed as incidence of vomiting at <15 mg/kg/day, perorally and co-treated with sulfadoxine and pyrimethamine during intermittent preventive treatment to prevent malaria in children regimen.
The subject of data set [11] is Homo sapiens. The experiment in a line: Toxicity in children with malaria over 2 years of age assessed as incidence of rashes at >=15 mg/kg/day, perorally co-treated with 500 mg sulfalene/25 mg pyrimethamine.
The test system of data set [12] is Homo sapiens. The experiment in a line: Toxicity in children with malaria over 2 years of age assessed as incidence of headache at >=15 mg/kg/day, perorally co-treated with 500 mg sulfalene/25 mg pyrimethamine.
In data set [13] the test system is Homo sapiens. Description: Toxicity in children with malaria under 2 years of age assessed as incidence of vomiting administered with 250 mg sulfalene/12.5 mg pyrimethamine on first day followed by compound treatment at <=15 mg/kg/day, perorally.
For data set [14], the system named is Homo sapiens. The experiment in a line: Toxicity in children with malaria assessed as incidence of rashes at >19 mg/kg/day, perorally and co-treated with sulfadoxine and pyrimethamine during intermittent preventive treatment to prevent malaria in children regimen.
Data set [15] deals with Homo sapiens. Description: Toxicity in children with malaria under 2 years of age assessed as incidence of headache administered with 250 mg sulfalene/12.5 mg pyrimethamine on first day followed by compound treatment at <=15 mg/kg/day, perorally.
Data set [16] relates to Homo sapiens. The experiment in a line: Toxicity in children with malaria under 2 years of age assessed as incidence of rashes administered with 250 mg sulfalene/12.5 mg pyrimethamine on first day followed by compound treatment at <=15 mg/kg/day, perorally.
In data set [17] the test system is Homo sapiens. The experiment in a line: Toxicity in children with malaria assessed as febrile incidence at 17-19 mg/kg/day, perorally and cotreated with Sulfadoxine and pyrimethamine during intermittent preventive treatment to prevent malaria in children regimen.
Data set [18] concerns Homo sapiens. Description: Toxicity in children with malaria assessed as incidence of rashes at 15-17 mg/kg/day, perorally and co-treated with sulfadoxine and pyrimethamine during intermittent preventive treatment to prevent malaria in children regimen.
The test system of data set [19] is Homo sapiens. The experiment in a line: Toxicity in children with malaria assessed as febrile incidence at >19 mg/kg/day, perorally and co-treated with sulfadoxine and pyrimethamine during intermittent preventive treatment to prevent malaria in children regimen.
The test system of data set [20] is Homo sapiens. The experiment in a line: Toxicity in children with malaria assessed as incidence of rashes at 17-19 mg/kg/day, perorally and cotreated with Sulfadoxine and pyrimethamine during intermittent preventive treatment to prevent malaria in children regimen.

As to `CCN(CC)Cc1cc(Nc2ccnc3cc(Cl)ccc23)ccc1O.Cl`, the Activity in the data set on Homo sapiens [1] worked out at 26.4%; in the data set with Homo sapiens [2], 29.8%; in the data set on Homo sapiens [3], 0.8%; with Homo sapiens [4] it was 3.8%; with Homo sapiens [5], 9.2%; in the data set on Homo sapiens [6], 1.9%. In addition, the Activity is 41.3% in the data set with Homo sapiens [7]; 6.3% with Homo sapiens [8]; 10.7% in the data set on Homo sapiens [9]; 7% in the data set on Homo sapiens [10]; 1.9% with Homo sapiens [11]; 5.8% with Homo sapiens [12]. Besides, the Activity in the data set with Homo sapiens [13] is listed as 26.4%; in the data set on Homo sapiens [14] it was 2.2%; with Homo sapiens [15], 9.6%; with Homo sapiens [16] it was 1.9%; with Homo sapiens [17], 9.9%; in the data set on Homo sapiens [18], 0%. Further, the Activity is given as 21.7% in the data set with Homo sapiens [19] and 0.8% in the data set with Homo sapiens [20].
